Results taken from patent publication US11672795B2, “Compositions and methods for treating pulmonary vascular disease” (UNIVERSITY OF PITTSBURGH-OF THE COMMONWEALTH SYSTEM OF …, priority 2016, dated 2023).
“Also recorded” adds a separate entry of the source. Like-named read-outs stand apart in the source and are kept apart here.

Columns and labels:
Type in all cases: in vivo, rat
GLS1 = conditions: monocrotaline-exposed rats; for GLS activity: daily BAPN or daily i.p. verteporfin 25 mg/kg; for GLS1 activity in whole rat lung: daily i.p. 10 mg/kg, C968 from day 2 (prevention), CB839 from day 7 (reversal), vs vehicle
Description: According to the manufacturer instructions (Glutaminase Microplate Assay Kit, Cohesion Biosciences), flash frozen rat lung tissue (0.1 g/sample) was homogenized in 1 mL of assay buffer on ice and centrifuged at 8000 g 4° C. for 10 min. Protein concentration was determined by Bradford assay. Samples, normalized to total protein (100 μg), were incubated with kit reagents for 1 hr at 37° C., and absorbances were measured at 420 nm.
(§1) To induce PH, male Sprague-Dawley rats (10-14 week old) were injected intraperitoneally with 60 mg/kg monocrotaline (Sigma-Aldrich). After two days, rats underwent intraperitoneal injection daily with 25 mg/kg of verteporfin (Active Biochemicals Company, Ltd) solubilized in 5% dimethyl sulfoxide (DMSO, Sigma-Aldrich). Two days after the last injection on day 21 post-monocrotaline injection, right heart catheterization was performed followed by harvest of lung tissue and CD31+ cells for RNA or protein extraction, paraffin embedding, or cryopreservation with OCT (Sigma-Aldrich), as we described (2).
(§2) To induce PH, male Sprague-Dawley rats (10-14 week old) were injected intraperitoneally with 60 mg/kg monocrotaline (Sigma-Aldrich). After two days, serial intraperitoneal injections were given daily of C968 (10 mg/kg, Sigma-Aldrich), and after seven days post-monocrotaline injection, serial intraperitoneal injections were given daily of CB839 (10 mg/kg, Selleck Chemicals). Two days after the last injection on day 21 post-monocrotaline injection, right heart catheterization was performed followed by harvest of lung tissue and CD31+ cells for RNA or protein extraction, paraffin embedding, or cryopreservation with OCT (Sigma-Aldrich), as we described (2).

[1] = tested on: monocrotaline-exposed rats; experiment: Histology and immunofluorescence of lung sections of monocrotaline-exposed rats; conditions: for CD31/PCNA and α-SMA/PCNA double-positive cells (vascular endothelial and smooth muscle proliferation) / GLS1 vascular intensity / YAP1+ cells / vessel thickness and muscularization (vascular remodeling): daily BAPN or daily i.p. verteporfin 25 mg/kg; for pulmonary arteriolar muscularization / pulmonary arteriolar remodeling / Ki67/PCNA positive cells in CD31/vWF+ endothelial compartment / Ki67/PCNA positive cells in α-SMA+ medial (smooth muscle) compartment: daily i.p. 10 mg/kg; for pulmonary arteriolar muscularization / pulmonary arteriolar remodeling: C968 from day 2, CB839 from day 7
Description: Lung sections (5 μm) were deparaffinized and high temperature antigen retrieval was performed, followed by blocking in TBS/BSA 5%, 10% donkey serum and exposure to primary antibody and biotinylated secondary antibody (Vectastain ABC kit, Vector Labs) for immunohistochemistry or Alexa 488, 568 and 647-conjugated secondary antibodies (Thermo Fisher Scientific) for immunofluorescence. A primary antibody against YAP1 (#4912; 1/200 or sc101199; 1/50) were obtained from Cell Signaling and Santa Cruz Biotechnology respectively. Primary antibodies against, GLS1 (ab156876; 1/100), PC (ab115579; 1/100), LDHA (ab47010; 1/200) and α-SMA (ab32575; 1/1000) were purchased from Abcam. A primary antibody against CD31 (sc-1506; 1/100), was purchased from Santa Cruz Biotechnology. A primary antibody against PCNA (13-3900, 1/100) was purchased from Thermo Fisher Scientific. In most cases, color development was achieved by adding streptavidin-biotinylated alkaline phosphatase complex (Vector Labs) followed by Vector Red alkaline phosphatase substrate solution (Vector Labs). Levamisole was added to block endogenous alkaline phosphatase activity (Vector Labs). Pictures were obtained using an Olympus Bx51 microscope or ZEISS LSM Exciter confocal microscope. Small pulmonary vessels (<100 µm diameter) present in a given tissue section (>10 vessels/section) that were not associated with bronchial airways were selected for analysis (N>5 animals/group). Intensity of staining was quantified using ImageJ software (NIH). Degree of pulmonary arteriolar muscularization was assessed in paraffin-embedded lung sections stained for α-SMA by calculation of the proportion of fully and partially muscularized peripheral (<100 μm diameter) pulmonary arterioles to total peripheral pulmonary arterioles, as previously described (12). All measurements were performed blinded to condition.
as §1, §2

[2] = tested on: monocrotaline-exposed rats; experiment: Right heart catheterization and right ventricular weight (RVSP, Fulton index) in monocrotaline-exposed rats; conditions: for hemodynamic and histologic indices of PH: BAPN or verteporfin alone; for PAH severity as quantified by RVSP: daily BAPN or daily i.p. verteporfin 25 mg/kg; for right ventricular remodeling (Fulton index, RV/LV+S) / right ventricular systolic pressure (RVSP): daily i.p. 10 mg/kg, C968 from day 2, CB839 from day 7
Description: Monocrotaline-treated rats: As we previously described (7, 8), male Sprague-Dawley rats (10-14 week old) were injected with 60 mg/kg monocrotaline at time 0; at 0-4 weeks post-exposure, right heart catheterization was performed followed by harvest of lung tissue for RNA extraction or paraffin embedding, as described below (section: Tissue harvest).
After physiological measurements by direct right ventricular puncture, the pulmonary vessels were gently flushed with 1 cc of saline to remove the majority of blood cells, prior to harvesting cardiopulmonary tissue. The heart was removed, followed by dissection and weighing of the right ventricle (RV) and of the left ventricle+septum (LV+S). Organs were then harvested for histological preparation or flash frozen in liquid N2 for subsequent homogenization and extraction of RNA and/or protein. To further process lung tissue specifically, prior to excision, lungs were flushed with PBS at constant low pressure (approximately 10 mmHg) via right ventricular cannulation, followed by tracheal inflation of the left lung with 10% neutral-buffered formalin (Sigma-Aldrich) at a pressure of approximately 20 cm H2O. After excision and 16 hours of fixation in 10% neutral-buffered formalin at 25° C., lung tissues were paraffin embedded via an ethanol-xylene dehydration series, before being sliced into 5 μm sections (Hypercenter XP System and Embedding Center, Shandon).
as §1, §2
as §2, with “Finally, to investigate whether glutaminolysis itself is essential for promoting pulmonary vascular proliferation in PH, two separate pharmacologic inhibitors of GLS1 (C968 and CB-839) were administered in monocrotaline-exposed rats using either a disease prevention (FIG. 5A) or disease reversal (FIG. 5B) dosing protocol. To” for “To”, “C968 or CB-839” for “C968”, “C968 or CB-839” for “CB839”, “as” for “as we”, “previously (Bertero T, et al. Cell Reports. 2015; 13(5):1016-32).” for “(2).”

[3] = C968 from day 2, CB839 from day 7, 10 mg/kg
[4] = C968 from day 2, CB839 from day 7, listed as CB-839, 10 mg/kg

SMILES | GLS activity (GLS1) | CD31/PCNA and α-SMA/PCNA double-positive cells (vascular endothelial and smooth muscle proliferation) [1] | GLS1 vascular intensity [1] | YAP1+ cells [1] | vessel thickness and muscularization (vascular remodeling) [1] | hemodynamic and histologic indices of PH [2] | PAH severity as quantified by RVSP [2] | GLS1 activity in whole rat lung (GLS1) | pulmonary arteriolar muscularization [1] | pulmonary arteriolar remodeling [1] | Ki67/PCNA positive cells in CD31/vWF+ endothelial compartment [1, 3] | Ki67/PCNA positive cells in α-SMA+ medial (smooth muscle) compartment [1, 3] | right ventricular remodeling (Fulton index, RV/LV+S) [2] | right ventricular systolic pressure (RVSP) [2] | other results
C=Cc1c(C)c2cc3nc(cc4[nH]c(cc5nc(cc1[nH]2)C(C)=C5CCC(=O)O)c(CCC(=O)OC)c4C)[C@@]1(C)C3=CC=C(C(=O)OC)[C@H]1C(=O)OC [Verteporfin, 3-[(23S,24R)-14-ethenyl-5-(3-methoxy-3-oxopropyl)-22,23-bis(methoxycarbonyl)-4,10,15,24-tetramethyl-25,26,27,28-tetraazahexacyclo[16.6.1.1^3,6.1^8,11.1^13,16.0^19,24]octacosa-1,3,5,7,9,11(27),12,14,16,18(25),19,21-dodecaen-9-yl]propanoic acid] | decrease | decreased | decreased | decreased | decreased | robust improvement | ameliorated | – | – | – | – | – | – | – | GLS activity (GLS1; listed as verteporfin): improved; CD31/PCNA and α-SMA/PCNA double-positive cells (vascular endothelial and smooth muscle proliferation) ([1]; listed as verteporfin): improved; vessel thickness and muscularization (vascular remodeling) ([1]; listed as verteporfin): reductions; PAH severity as quantified by RVSP ([2]; listed as verteporfin): reductions; right ventricular remodelling (Fulton index) ([2]; daily i.p. verteporfin 25 mg/kg): reductions
O=C(Cc1cccc(OC(F)(F)F)c1)Nc1ccc(CCCCc2nnc(NC(=O)Cc3ccccn3)s2)nn1 [CB839] | – | – | – | – | – | – | – | decreased | significantly decreased | significantly decreased | reduced | reduced | significantly decreased | significantly decreased | Ki67/PCNA positive cells in CD31/vWF+ endothelial compartment [1, 4]: decreased; Ki67/PCNA positive cells in α-SMA+ medial (smooth muscle) compartment [1, 4]: decreased
CN(C)c1ccc(C2Nc3ccc4ccccc4c3C3=C2C(=O)CC(C)(C)C3)cc1Br (stereo not drawn) [C968, 5-(3-Bromo-4-(dimethylamino)phenyl)-2,2-dimethyl-2,3,5,6-tetrahydrobenzo[a]phenanthridin-4(1H)-one] | – | – | – | – | – | – | – | decreased | significantly decreased | significantly decreased | reduced; also recorded: decreased | reduced; also recorded: decreased | significantly decreased | significantly decreased | PAH severity, as quantified by vascular remodeling, arteriolar muscularization, RVSP and right ventricular hypertrophy ([2]; prevention experiment (C968) or reversal study): ameliorated
N#CCCN [BAPN, β-aminoproprionitrile] | decreased | decreased | decreased | decreased | decreased; also recorded: ameliorated | improvement | in a lower extent BAPN ameliorated | – | – | – | – | – | – | – | –
